Results reported in patent US5854204A, “Aβ peptides that modulate β-amyloid aggregation” (priority 1996, dated 1998).
Numbered stars: 1 amine (or outer) side, 2 acyl side, 3 side chain; on linkers, the order of the positions; unused ones are H or OH. Square brackets hold non-standard residues; d marks the D form. Peptide text beside a SMILES is read from it. * marks the point of attachment. Cholyl = C[C@H](CCC(=O)*)[C@H]1CC[C@H]2[C@@H]3[C@H](O)C[C@@H]4C[C@H](O)CC[C@]4(C)[C@H]3C[C@H](O)[C@]12C; X2 = O=C(C1(O)C[C@H](O)[C@@H](N[*:1])[C@H]([C@H](O)[C@H](O)CO)O1)[*:2]; Tyr(3-I) = N[C@@H](Cc1ccc(O)c(I)c1)C(=O)O

Experiments:
Aβ1-40 [1] = target: T1, Aβ1-40 (Homo sapiens, UniProt P05067); assay: biochemical; conditions: read-out: % Inucl'n (percent reduction in maximum turbidity)
Source text: (§1) The nucleation assay is employed to determine the ability of test compounds to alter (e.g. inhibit) the early events in formation of β-AP fibers from monomeric β-AP. […] The time delay before polymerization of β-AP monomer can be quantified as well as the extent of formation of insoluble fiber by light scattering (turbidity). Polymerization reaches equilibrium when the maximum turbidity reaches a plateau. […] The threshold of sensitivity for the measurement of turbidity is in the range of 15-20 μM β-AP. […] This assay can be performed using stirring or shaking to accelerate polymerization, thereby increasing the speed of the assay. Moreover the assay can be adapted to a 96-well plate format to screen multiple compounds.
(§2) HFIP-solubilized peptide is sonicated in a waterbath sonicator for 5 min at highest setting, then evaporated to dryness under a stream of argon. […] Test compounds are dissolved in DMSO at a 100× concentration. […] Ten microliters of the mixture is then added to the bottom of a well of a Corning Costar ultra low binding 96-well plate (Corning Costar, Cambridge Mass.; cat. No. 2500). […] The plate is then returned to the shaker and shaken continuously for 5 hours. Turbidity readings are taken at 15 minute intervals.
(§3) Accordingly a fold increase in lag time of 1.0 indicates no change in lag time, whereas numbers >1.0 indicate an increase in lag time. The "% inhibition of plateau", which is a measure of the ability of the compound to decrease the total amount of aggregation, refers to the reduction of the final turbidity in the presence of the test compound expressed as a percent of the control without the test compound.

Aβ1-40 [2] = target: T1, Aβ1-40; assay: Seeded extension assay (thioflavin T fluorescence); assay type: biochemical; set-up: Natural β-AP (β-AP1-40) was obtained commercially from Bachem (Torrance, Calif.); purchased Bachem (Torrance, Calif.); conditions: Table V; 25 mole % inhibitor
Procedure: The seeded extension assay can be employed to measure the rate of Aβ fiber formed in a solution of Aβ monomer following addition of polymeric Aβ fiber "seed". The ability of test compounds to prevent further deposition of monomeric Aβ to previously deposited amyloid is determined using a direct indicator of β-sheet formation using fluorescence. In contrast with the nucleation assay, the addition of seed provides immediate nucleation and continued growth of preformed fibrils without the need for continuous mixing, and thus results in the absence of a lag time before polymerization starts. Since this assay uses static polymerization conditions, the activity of positive compounds in the nucleation assay can be confirmed in this second assay under different conditions and with an additional probe of amyloid structure.
Samples of the solution are then diluted in thioflavin T (Th-T). The polymer-specific association of Th-T with Aβ produces a fluorescent complex that allows the measurement of the extent of fibril formation (Levine, H. (1993) Protein Science 2:404-410). In particular, association of Th-T with aggregated β-AP, but not monomeric or loosely associated β-AP, gives rise to a new excitation (ex) maximum at 450 nm and an enhanced emission (em) at 482 nm, compared to the 385 nm (ex) and 445 nm (em) for the free dye. Small aliquots of the polymerization mixture contain sufficient fibril to be mixed with Th-T to allow the monitoring of the reaction mixture by repeated sampling. A linear growth curve is observed in the presence of excess monomer. The formation of thioflavin T responsive β-sheet fibrils parallels the increase in turbidity observed using the nucleation assay.
To prepare the stock seed, 1 ml of the Aβ monomer preparation, is incubated for approximately 8 days at 37° C. and sheared sequentially through an 18, 23, 26 and 30 gauge needle 25, 25, 50, and 100 times respectively. 2 μl samples of the sheared material is taken for fluorescence measurements after every 50 passes through the 30 gauge needle until the fluorescence units (FU) plateau (approx. 100-150×). Test compounds are prepared by dissolving an appropriate amount of test compound in 1× PBS to a final concentration of 1 mM (10× stock). If insoluble, the compound is dissolved in 1/10 volume of DMSO and diluted in 1× PBS to 1 mM. A further 1/10 dilution is also prepared to test each candidate at both 100 μM and 10 μM.
To perform the seeded extension assay, each sample is set up with 50 μl of 200 μM monomer, 125 FU sheared seed (a variable quantity dependent on the batch of seed, routinely 3-6 μl) and 10 μl of 10× modulator solution. The sample volume is then adjusted to a final volume of 100 μl with 1× PBS. Two concentrations of each modulator typically are tested: 100 μM and 10 μM, equivalent to a 1:1 and a 1:10 molar ratio of monomer to modulator. The controls include an unseeded reaction to confirm that the fresh monomer contains no seed, and a seeded reaction in the absence of any modulators, as a reference to compare against candidate modulators. The assay is incubated at 37° C. for 6 h, taking 2 μl samples hourly for fluorescence measurements. To measure fluorescence, a 2 μl sample of Aβ is added to 400 μl of Thioflavin-T solution (50 mM Potassium Phosphate […] pH 7.5). The samples are vortexed and the fluorescence is read in a 0.5 ml micro quartz cuvette at EX 450 nm and EM 482 nm (Hitachi 4500 Fluorimeter).
The modulators were evaluated in the nucleation and seeded extension assays described in Example 6 and the results are summarized below in Table V. The change in lag time (ΔLag) is presented as the ratio of the lag time observed in the presence of the test compound to the lag time of the control. […] Inhibition (% Inucl'n) is listed as the percent reduction in the maximum observed turbidity in the control at the end of the assay time period. […]

Aβ1-40 [3] = target: T1, Aβ1-40
Source text: as §1, §2, §3
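For % Inhibition of Plateau in this document: Aβ nucleation assay tracking fiber polymerization from monomer by turbidity (light scattering), shaken continuously in 96-well plates, read every 15 min over 5 h, compared with compound-free control.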

T1 sequence (P05067 672-711): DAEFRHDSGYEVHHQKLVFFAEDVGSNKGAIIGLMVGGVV

Row | SMILES | inhibition at 100 % (Aβ1-40 [1]) | % Iext'n (percent reduction of thioflavin-T fluorescence) (Aβ1-40 [2]) | further results
1 | CC(C)[C@H](NC(=O)CC[C@@H](C)[C@H]1CC[C@H]2[C@@H]3[C@H](O)C[C@@H]4C[C@H](O)CC[C@]4(C)[C@H]3C[C@H](O)[C@]12C)C(=O)N[C@@H](Cc1ccccc1)C(=O)N[C@@H](Cc1ccccc1)C(=O)O [PPI-394] | 55% | 0% | –
2 | COC(=O)[C@H](C)NC(=O)[C@H](Cc1ccccc1)NC(=O)[C@H](Cc1ccccc1)NC(=O)[C@@H](NC(=O)[C@H](CC(C)C)NC(=O)CC[C@@H](C)[C@H]1CC[C@H]2[C@@H]3[C@H](O)C[C@@H]4C[C@H](O)CC[C@]4(C)[C@H]3C[C@H](O)[C@]12C)C(C)C [PPI-401] | – | 0% | –
3 | CC(C)[C@H](NC(=O)[C@H](C)NC(=O)CC[C@@H](C)[C@H]1CC[C@H]2[C@@H]3[C@H](O)C[C@@H]4C[C@H](O)CC[C@]4(C)[C@H]3C[C@H](O)[C@]12C)C(=O)N[C@@H](C)C(=O)N[C@@H](Cc1ccccc1)C(=O)N[C@@H](C)C(=O)O [PPI-400] (Cholyl-AVAFA-OH) | -15% | – | –
4 | C[C@H](CCC(=O)NCC(=O)N[C@@H](Cc1ccccc1)C(=O)N[C@@H](Cc1ccccc1)C(=O)O)[C@H]1CC[C@H]2[C@@H]3[C@H](O)C[C@@H]4C[C@H](O)CC[C@]4(C)[C@H]3C[C@H](O)[C@]12C [PPI-438] | 0% | – | –
5 | CC(C)C[C@H](NC(=O)CC[C@@H](C)[C@H]1CC[C@H]2[C@@H]3[C@H](O)C[C@@H]4C[C@H](O)CC[C@]4(C)[C@H]3C[C@H](O)[C@]12C)C(=O)N[C@@H](C)C(=O)N[C@@H](Cc1ccccc1)C(=O)N[C@@H](Cc1ccccc1)C(=O)N[C@@H](C)C(=O)O [PPI-389] (Cholyl-LAFFA-OH) | 47% | 66% | –
6 | CC(C)[C@H](NC(=O)[C@H](Cc1ccccc1)NC(=O)[C@H](Cc1ccccc1)NC(=O)CC[C@@H](C)[C@H]1CC[C@H]2[C@@H]3[C@H](O)C[C@@H]4C[C@H](O)CC[C@]4(C)[C@H]3C[C@H](O)[C@]12C)C(=O)O [PPI-429] | -33% | 7% | –
7 | CC(C)C[C@H](NC(=O)CC[C@@H](C)[C@H]1CC[C@H]2[C@@H]3[C@H](O)C[C@@H]4C[C@H](O)CC[C@]4(C)[C@H]3C[C@H](O)[C@]12C)C(=O)N[C@H](C(=O)N[C@@H](C)C(=O)N[C@@H](Cc1ccccc1)C(=O)N[C@@H](C)C(=O)O)C(C)C [PPI-390] (Cholyl-LVAFA-OH) | 25% | 0% | –
8 | CC(C)C[C@H](NC(=O)CC[C@@H](C)[C@H]1CC[C@H]2[C@@H]3[C@H](O)C[C@@H]4C[C@H](O)CC[C@]4(C)[C@H]3C[C@H](O)[C@]12C)C(=O)N[C@H](C(=O)N[C@@H](Cc1ccccc1)C(=O)N[C@@H](Cc1ccccc1)C(=O)N[C@@H](C)C(=O)N[C@@H](CCC(=O)O)C(=O)O)C(C)C [PPI-379] (Cholyl-LVFFAE-OH) | 55% | 16% | –
9 | CC(=O)N[C@H]1[C@H]([C@H](O)[C@H](O)CO)OC(O)(C(=O)N[C@@H](Cc2c[nH]cn2)C(=O)N[C@@H](CCC(N)=O)C(=O)N[C@@H](CCCCN)C(=O)N[C@@H](CC(C)C)C(=O)N[C@H](C(=O)N[C@@H](Cc2ccccc2)C(=O)N[C@@H](Cc2ccccc2)C(N)=O)C(C)C)C[C@@H]1O (some centres unmarked) [PPI-316] (Ac-[X2]HQKLVFF-NH2) | -15% | – | –
10 | CC(C)C[C@H](NC(=O)[C@H](CCCCN)NC(=O)CCCC[C@@H]1SC[C@@H]2NC(=N)N[C@@H]21)C(=O)N[C@H](C(=O)N[C@@H](Cc1ccccc1)C(=O)N[C@@H](Cc1ccccc1)C(=O)O)C(C)C [PPI-374, iminobiotinyl-Aβ16-20] | – | 0% | % Inhibition of Plateau (Aβ1-40 [3]): 86%
11 | CC(C)C[C@H](NC(=O)CC[C@@H](C)[C@H]1CC[C@H]2[C@@H]3[C@H](O)C[C@@H]4C[C@H](O)CC[C@]4(C)[C@H]3C[C@H](O)[C@]12C)C(=O)N[C@H](C(=O)N[C@@H](Cc1ccccc1)C(=O)N[C@@H](C)C(=O)N[C@@H](C)C(=O)O)C(C)C [PPI-391] (Cholyl-LVFAA-OH) | 40% | – | –
12 | CC(C)C[C@H](NC(=O)[C@H](CCCCN)NC(=O)CC[C@@H](C)[C@H]1CC[C@H]2[C@@H]3[C@H](O)C[C@@H]4C[C@H](O)CC[C@]4(C)[C@H]3C[C@H](O)[C@]12C)C(=O)N[C@H](C(=O)N[C@@H](C)C(=O)N[C@@H](Cc1ccccc1)C(=O)O)C(C)C [PPI-370, cholyl-Aβ16-20 Phe19- >Ala] (Cholyl-KLVAF-OH) | – | 31% | % Inhibition of Plateau (Aβ1-40 [3]): 73%
13 | CC(C)C[C@@H](NC(=O)CC[C@@H](C)[C@H]1CC[C@H]2[C@@H]3[C@H](O)C[C@@H]4C[C@H](O)CC[C@]4(C)[C@H]3C[C@H](O)[C@]12C)C(=O)N[C@@H](C(=O)N[C@H](Cc1ccccc1)C(=O)N[C@H](Cc1ccccc1)C(=O)N[C@H](C)C(=O)O)C(C)C [PPI-433] | 27% | – | –
14 | CC(C)C[C@H](NC(=O)[C@H](CCCCN)NC(=O)[C@H](CCC(N)=O)NC(=O)[C@H](Cc1c[nH]cn1)NC(=O)CC[C@@H](C)[C@H]1CC[C@H]2[C@@H]3[C@H](O)C[C@@H]4C[C@H](O)CC[C@]4(C)[C@H]3C[C@H](O)[C@]12C)C(=O)N[C@H](C(=O)N[C@@H](Cc1ccccc1)C(=O)N[C@@H](Cc1ccccc1)C(=O)O)C(C)C [PPI-348] (Cholyl-HQKLVFF-OH) | – | – | % Inhibition of Plateau (Aβ1-40 [3]): 49%; inhibition at 33 % (Aβ1-40 [1]): 70%
15 | CC(C)C[C@H](NC(=O)CC[C@@H](C)[C@H]1CC[C@H]2[C@@H]3[C@H](O)C[C@@H]4C[C@H](O)CC[C@]4(C)[C@H]3C[C@H](O)[C@]12C)C(=O)N[C@H](C(=O)N[C@@H](Cc1ccc(O)c(I)c1)C(=O)N[C@@H](Cc1ccccc1)C(=O)N[C@@H](C)C(=O)O)C(C)C [PPI-396] (Cholyl-LV[Tyr(3-I)]FA-OH) | 100% | – | –
16 | CC(C)C[C@H](NC(=O)[C@H](CCCCN)NC(=O)CC[C@@H](C)[C@H]1CC[C@H]2[C@@H]3[C@H](O)C[C@@H]4C[C@H](O)CC[C@]4(C)[C@H]3C[C@H](O)[C@]12C)C(=O)N[C@H](C(=O)N[C@@H](Cc1ccccc1)C(=O)N[C@@H](Cc1ccccc1)C(=O)O)C(C)C [PPI-350, cholyl-Aβ16-20] | – | 11% | –
17 | CC(C)C[C@H](NC(=O)CC[C@@H](C)[C@H]1CC[C@H]2[C@@H]3[C@H](O)C[C@@H]4C[C@H](O)CC[C@]4(C)[C@H]3C[C@H](O)[C@]12C)C(=O)N[C@H](C(=O)N[C@@H](Cc1ccccc1)C(=O)N[C@@H](Cc1ccc(O)c(I)c1)C(=O)N[C@@H](C)C(=O)O)C(C)C [PPI-397] (Cholyl-LVF[Tyr(3-I)]A-OH) | 95% | – | –
18 | C[C@H](CCC(=O)O)[C@H]1CC[C@H]2[C@@H]3[C@H](O)C[C@@H]4C[C@H](O)CC[C@]4(C)[C@H]3C[C@H](O)[C@]12C [PPI-293, Cholic acid, reference compound] | 0% | – | inhibitory activity on Aβ aggregation (Aβ1-40 [3]): had no effect on Aβ aggregation
19 | CC(C)C[C@H](NC(=O)[C@H](CCCCN)NC(=O)CC[C@@H](C)[C@H]1CC[C@H]2[C@@H]3[C@H](O)C[C@@H]4C[C@H](O)CC[C@]4(C)[C@H]3C[C@H](O)[C@]12C)C(=O)N[C@H](C(=O)N[C@@H](Cc1ccccc1)C(=O)N[C@@H](Cc1ccccc1)C(=O)O)[C@@H](C)O [PPI-369] (Cholyl-KLTFF-OH) | – | 44% | % Inhibition of Plateau (Aβ1-40 [3]): ~ 0%
